# ± gives the expanded uncertainty stated by the source.
# Experiment: wn = mass fraction of the nth substance listed
# Conditions: 101.3 kPa, Liquid, Vibrating tube method
Structure (SMILES),"mass density (298.15 K, w1 = 0.0878) [kg/m3]","mass density (313.15 K, w1 = 0.1087) [kg/m3]","mass density (333.15 K, w1 = 0.1472) [kg/m3]","mass density (298.15 K, w1 = 0.2315) [kg/m3]","mass density (313.15 K, w1 = 0.2807) [kg/m3]","mass density (333.15 K, w1 = 0.3526) [kg/m3]"
"O=C(O)CCCCC(=O)O [1,6-hexanedioic acid] + OCCOCCO",1171.8 ± 0.5,1175.7 ± 0.6,1188.2 ± 0.7,,,
NC(N)=O [urea] + OCCOCCO,,,,1160.9 ± 1.1,1174.2 ± 1.3,1184.5 ± 1.7

# From the NIST ThermoML archive (doi:10.1016/j.fluid.2015.12.026)
